Measured values as given in US10544149B2, “Bicyclic alkyne derivatives and uses thereof” (Agency for Science, Technology and Research, priority 2013, dated 2020).
Where a name gives a salt, the structure may show the parent alone.

Legend:
[1] = tested on: eIF4e phosphorylation in Hela cell line; test: eIF4e phosphorylation inhibition in Hela cell line; assay type: cell-based; conditions: Homo sapiens, cellular
[2] = target: MNK1 (Homo sapiens, UniProt Q9BUB5); test: MNK1 enzymatic assay; assay type: biochemical
Chain of MNK1 (Q9BUB5 whole entry): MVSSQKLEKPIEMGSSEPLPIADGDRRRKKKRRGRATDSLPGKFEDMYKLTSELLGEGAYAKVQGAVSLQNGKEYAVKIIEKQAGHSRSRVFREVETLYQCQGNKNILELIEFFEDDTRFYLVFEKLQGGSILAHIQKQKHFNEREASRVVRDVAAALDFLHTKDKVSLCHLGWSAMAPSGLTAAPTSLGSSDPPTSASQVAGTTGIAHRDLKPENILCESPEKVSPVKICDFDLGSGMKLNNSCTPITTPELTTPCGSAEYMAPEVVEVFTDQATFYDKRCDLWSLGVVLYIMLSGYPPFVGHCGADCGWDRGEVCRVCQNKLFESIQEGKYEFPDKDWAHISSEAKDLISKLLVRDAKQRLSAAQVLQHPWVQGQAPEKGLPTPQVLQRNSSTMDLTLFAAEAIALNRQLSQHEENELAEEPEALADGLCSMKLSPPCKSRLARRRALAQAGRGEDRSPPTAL

[3] = target: MNK2 (Homo sapiens, UniProt Q9HBH9); test: MNK2 enzymatic assay; assay type: biochemical
Chain of MNK2 (Q9HBH9 whole entry): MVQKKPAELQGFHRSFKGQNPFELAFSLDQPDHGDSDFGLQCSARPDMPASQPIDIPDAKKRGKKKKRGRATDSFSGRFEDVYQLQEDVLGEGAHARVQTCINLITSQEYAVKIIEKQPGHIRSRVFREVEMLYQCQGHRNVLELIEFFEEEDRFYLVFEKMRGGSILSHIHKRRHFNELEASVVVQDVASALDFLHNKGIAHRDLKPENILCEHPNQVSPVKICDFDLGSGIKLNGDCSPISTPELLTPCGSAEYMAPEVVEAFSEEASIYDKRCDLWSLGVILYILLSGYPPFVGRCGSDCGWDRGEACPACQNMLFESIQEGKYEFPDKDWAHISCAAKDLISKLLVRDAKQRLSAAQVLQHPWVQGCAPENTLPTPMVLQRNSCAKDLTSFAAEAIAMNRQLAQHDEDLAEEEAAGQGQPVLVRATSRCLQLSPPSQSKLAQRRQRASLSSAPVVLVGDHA

IC50 [1] [µM]	IC50 [2] [µM]	IC50 [3] [µM]	Compound
< 5	< 0.5	< 0.5	O=C(c1ccc(-c2ccc3ncc(C#Cc4cnc5[nH]ccc5c4)n3n2)cc1)N1CCOCC1 [Example 023, (4-(3-((1H-pyrrolo[2,3-b]pyridin-5-yl)ethynyl)imidazo[1,2-b]pyridazin-6-yl)phenyl) (morpholino)methanone]
< 5	< 0.5	< 0.5	Cc1ncccc1Nc1cc(C#Cc2cnc3ccc(-c4ccc(C(=O)N5CCNCC5)cc4)cn23)ccn1 [Example 107, (4-(3-((2-(2-methylpyridin-3-ylamino)pyridin-4-yl)ethynyl)imidazo[1,2-a]pyridin-6-yl)phenyl)(piperazin-1-yl)methanone]
< 5	< 0.5	< 0.5	Nc1cc(C#Cc2cnc3ccc(-c4ccc(C(=O)N5CCOCC5)cc4)cn23)c2cc[nH]c2n1 [Example 098, (4-(3-((6-amino-1H-pyrrolo[2,3-b]pyridin-4-yl)ethynyl)imidazo[1,2-a]pyridin-6-yl)phenyl)(morpholino)methanone]
< 5	< 0.5	< 0.5	O=C(c1ccc(-c2ccc3ncc(C#Cc4ccnc5[nH]ccc45)n3c2)cc1)N1CCOCC1 [Example 099, (4-(3-((1H-pyrrolo[2,3-b]pyridin-4-yl)ethynyl)imidazo[1,2-a]pyridin-6-yl)phenyl)(morpholino)methanone]
< 5	< 0.5	< 0.5	Cc1ccc(Nc2cc(C#Cc3cnc4ccc(-c5ccc(C(=O)N6CCOCC6)cc5)nn34)ccn2)cc1 [Example 058, morpholino(4-(3-((2-(p-tolylamino)pyridin-4-yl)ethynyl)imidazo[1,2-b]pyridazin-6-yl)phenyl)methanone]
< 5	< 0.5	< 0.5	CC(C)c1ccccc1Nc1cc(C#Cc2cnc3ccc(-c4ccc(C(=O)N5CCOCC5)cc4)nn23)ccn1 [Example 059, (4-(3-((2-(2-isopropylphenylamino)pyridin-4-yl)ethynyl)imidazo[1,2-b]pyridazin-6-yl)phenyl)(morpholino)methanone]
< 5	< 0.5	< 0.5	O=C(c1ccc(-c2ccc3ncc(C#Cc4ccnc5[nH]ncc45)n3n2)cc1)N1CCOCC1 [Example 016, (4-(3-((1H-pyrazolo[3,4-b]pyridin-4-yl)ethynyl)imidazo[1,2-b]pyridazin-6-yl)phenyl) (morpholino)methanone]
< 5	< 0.5	< 0.5	O=C(c1ccc(-c2ccc3ncc(C#Cc4ccnc5[nH]ccc45)n3n2)cc1)N1CCNCC1 [Example 045, (4-(3-((1H-pyrrolo[2,3-b]pyridin-4-yl)ethynyl)imidazo[1,2-b]pyridazin-6-yl)phenyl)(piperazin-1-yl) methanone]
< 5	< 0.5	< 0.5	Nc1cc(C#Cc2cnc3ccc(-c4ccc(C(=O)N5CCOCC5)cc4F)nn23)ccn1 [Example 122, (4-(3-((2-aminopyridin-4-yl)ethynyl)imidazo[1,2-b]pyridazin-6-yl)-3-fluorophenyl)(morpholino)methanone formate salt]
< 5	< 0.5	< 0.5	Cc1ccccc1Nc1cc(C#Cc2cnc3ccc(-c4ccc(C(=O)N5CCOCC5)cc4)nn23)ccn1 [Example 052, morpholino(4-(3-((2-(o-tolylamino)pyridin-4-yl)ethynyl)imidazo[1,2-b]pyridazin-6-yl)phenyl)methanone]
< 5	< 0.5	< 0.5	O=C(c1ccc(-c2ccc3ncc(C#Cc4ccnc5[nH]ccc45)n3n2)cc1)N1CCOCC1 [Example 033, (4-(3-((1H-pyrrolo[2,3-b]pyridin-4-yl)ethynyl)imidazo[1,2-b]pyridazin-6-yl)phenyl) (morpholino)methanone]
< 5	< 0.5	< 0.5	O=C(Nc1cc(C#Cc2cnc3ccc(-c4ccc(C(=O)N5CCOCC5)cc4)nn23)ccn1)c1cccnc1 [Example 065, N-(4-((6-(4-(morpholine-4-carbonyl)phenyl)imidazo[1,2-b]pyridazin-3-yl)ethynyl)pyridin-2-yl)nicotinamide]
< 5	< 0.5	< 0.5	CC(=O)Nc1cccc(C#Cc2cnc3ccc(-c4ccc(C(=O)N5CCOCC5)cc4)nn23)c1 [Example 013, N-(3-((6-(4-(morpholine-4-carbonyl)phenyl)imidazo[1,2-b]pyridazin-3-yl)ethynyl)phenyl)acetamide]
< 5	< 0.5	< 0.5	O=C(c1ccc(-c2ccc3ncc(C#Cc4ccnc5[nH]ncc45)n3c2)cc1)N1CCNCC1 [Example 104, (4-(3-((1H-pyrazolo[3,4-b]pyridin-4-yl)ethynyl)imidazo[1,2-a]pyridin-6-yl)phenyl) (piperazin-1-yl)methanone]
< 5	< 0.5	< 0.5	Cc1ncccc1Nc1cc(C#Cc2cnc3ccc(-c4ccc(C(=O)N5CCOCC5)cc4)nn23)ccn1 [Example 047, (4-(3-((2-((2-methylpyridin-3-yl)amino)pyridin-4-yl)ethynyl)imidazo[1,2-b]pyridazin-6-yl)phenyl) (morpholino)methanone]
< 5	< 0.5	< 0.5	O=C(c1ccc(-c2ccc3ncc(C#Cc4cn[nH]c4)n3n2)cc1)N1CCOCC1 [Example 028, (4-(3-((1H-pyrazol-4-yl)ethynyl)imidazo[1,2-b]pyridazin-6-yl)phenyl)(morpholino)methanone]
< 5	< 0.5	< 0.5	Cc1cccc(Nc2cc(C#Cc3cnc4ccc(-c5ccc(C(=O)N6CCOCC6)cc5)nn34)ccn2)c1 [Example 057, morpholino(4-(3-((2-(m-tolylamino)pyridin-4-yl)ethynyl)imidazo[1,2-b]pyridazin-6-yl)phenyl)methanone]
< 5	< 0.5	< 0.5	C(#Cc1cnc2ccc(-c3ccc(CN4CCOCC4)cc3)nn12)c1ccnc2[nH]ccc12 [Example 075, 4-(4-(3-((1H-pyrrolo[2,3-b]pyridin-4-yl)ethynyl)imidazo[1,2-b]pyridazin-6-yl)benzyl)morpholine]
< 5	< 0.5	< 0.5	CC(=O)Nc1cc(C#Cc2cnc3ccc(-c4ccc(C(=O)N5CCOCC5)cc4)nn23)ccn1 [Example 037, N-(4-((6-(4-(morpholine-4-carbonyl)phenyl)imidazo[1,2-b]pyridazin-3-yl)ethynyl)pyridin-2-yl)acetamide]
< 5	< 0.5	< 0.5	O=C(c1ccc(-c2ccc3ncc(C#Cc4ccnc(Nc5nccs5)c4)n3n2)cc1)N1CCOCC1 [Example 053, morpholino(4-(3-((2-(thiazol-2-ylamino)pyridin-4-yl)ethynyl)imidazo[1,2-b]pyridazin-6-yl)phenyl)methanone]
< 5	< 0.5	< 0.5	CN(c1ccccc1)c1cc(C#Cc2cnc3ccc(-c4ccc(C(=O)N5CCOCC5)cc4)nn23)ccn1 [Example 071, (4-(3-((2-(methyl(phenyl)amino)pyridin-4-yl)ethynyl)imidazo[1,2-b]pyridazin-6-yl)phenyl) (morpholino) methanone]
